Entries after “also recorded” stand apart in the source; their conditions may differ.
Assays:
[1] = in vitro persistence of melittin within cells
[2] = system: feline immunodeficiency virus (FIV); test: Example 3: FIV replication in naturally infected cats, quantitative FIV-PCR; type: in vivo
Method: To further investigate the effects of melittin (Seq. ID NO:1) on virus replication in retroviral infected cells or the inhibition of retroviral infected cell growth, a series of experiments were conducted utilizing cats which were naturally infected with the feline immunodeficiency virus (FIV). FIV is in its genomic and viral structure, in many respects, very similar to the human immunodeficiency virus (HIV). Therefore, it is widely regarded as similar to HIV, that is, it is a member of the Lentivirus subfamily, of the retrovirus family. Further, it has been determined that experimentally and naturally infected cats having FIV, display very similar disease characteristics such as immunedysfunction or other neurological disorders which can be taken as a relevant model for HIV infection in humans. This is discussed in greater detail in the article authored by Egberink et. al. "Suppression of feline immuno-deficiency virus infection in vivo by 9-(2-phosphonomethoxyethyl)adenine," Proc. Natl. Acad. Sci. 87, 3087-3091 (1990).
In the following series of experiments, two naturally FIV infected cats (M and G) were used. These particular cats were kept for more than one year under constant observation in the Clinic for Internal Medicine at the Veterinary School in Munich, Germany before the onset of melittin (Seq. ID NO:1) treatment. In each cat, FIV infection had been confirmed by detecting an antibody ELISA. In this regard, a test marketed under the tradename PetChek® and which is available from the same company in Portland, Maine was employed. As best seen in FIG. 53. The antibody titer against FIV in both cats was approximately 1:50. As a general matter, the overall physical condition of both cats was good during the observation period. Further and during the experiment, cat M developed shortly before melittin treatment a pneumonitis which was not treated in a conventional fashion. The individual body weights of each cat at the beginning of melittin treatment was 4 kilograms and 2.2 kilograms for cats M and G, respectively.
During the experiment it was determined that detectable blood serum levels of melittin (Seq. ID NO:1) of about 5 ng/ml could be detected following an injection of melittin equal to […] a few minutes after injection. […] In vitro data has shown that melittin, after this time interval, is found within the cells where it can be detected in tact for more than 48 hours. The LD50 (lethal dose where 50% of the animals perish) for melittin is not known for cats. […] The quantitative effect of melittin on FIV replication was determined quantitatively by utilizing FIV-PCR employing nested primers from the gag region. Quantification was based upon the determination of amplified product in identical samples which have been amplified after different cycle times. […]

HIV = HIV release from chronically infected cells (Biomek 1000); type: cell-based; details: FIGS. 6-19
Text: A series of experiments and which are illustrated graphically in FIGS. 6 through 34, respectively, were designed to detect two extremes. In particular the tests were designed to detect the inhibition of viral release and/or the release of virus which has a reduced ability to infect other cells. This reduced ability to infect other cells is represented, for example, by glycosylation inhibitors, the direct effect on virus release is represented by acylation inhibitors, RT inhibitors and melittin (Seq. ID NO:1). The most important feature of this experimental design, however, is to detect the toxicity of melittin. The present experiments were carried out on both the astrocytoma cell line LC5-HIV (cloned infected cells) and T-lymphocytoma cell line KE37-1/IIIβ (cloned infected cells with HTLV-IIIβ). In both cases the results were essentially identical.
In the present series of experiments HIV release was tested by a fully automated laboratory robot system and which is manufactured by Beckman Instruments as the Biomek 1000. This system performed the following steps. First, chronically infected cells (cloned) are plated in microtiter plates and grown for a period of seven days. They are then challenged by melittin (Seq. ID NO:1) during this period either for the final day or throughout the period as shown in the figures. The number of living cells are quantified by MTT, that is by a metabolic (dehydrogenase) test. The MTT test is automatically performed. The toxic effect is detected at the time of the experiment and not in a separate control experiment. Furthermore, the supernatant, and which contains released virus cells from the period of time which elapsed from the last wash, and which may vary from 24 hours to 7 days, is collected from the culture, and an aliquot is saved for virus quantification by employing antigen or viral enzyme reverse transcriptase (RT). Furthermore, an aliquot is added to a culture of uninfected cells in microtiter plates for subsequent measurement of the ability of the virus cells to reinfect these uninfected cells. In this regard, the number of infected cells is automatically quantified by an immunoperoxidase staining technique. The test results, as shown, are expressed in terms of toxicity of the melittin (MTT test); the release of HIV from the primary culture (RT test); and the ability of the released virus to infect previously uninfected cells.

phospholipase A2 = details: anterior pituitary; cited from earlier work

Gly-Ile-Gly-Ala-Val-Leu-Lys-Val-Leu-Thr-Thr-Gly-Leu-Pro-Ala-Leu-Ile-Ser-Trp-Ile-Lys-Arg-Lys-Arg-Gln-Gln-Amide [melittin]
time detectable in tact within the cells [1]: more than 48 hours | reduction in virus load ([2]; FIV model, summary): 50% | amplification of FIV specific sequences, in words ([2]; cat G, day 42 and following days): a reduced amplification could already be seen in the sample from day 42 and the following days | amplification of FIV specific sequences, late samples, in words ([2]; cat M, days 56 and 116): reduced amplification | reduction of the virus load ([2]; cat M, days 56 and 116): ≥ 50% | inhibition of viral cell (HIV) release from infected cells, in words (HIV): inhibition of viral cell release from infected cells; also recorded: inhibited HIV release | effect on phospholipase A2 (phospholipase A2): stimulates endogenous phospholipase A2 in the anterior pituitary leading to growth hormone secretion
